Data from patent US20260284207A1, “COMPOUND FOR USE AS A PEPTIDE BINDER SPECIFICALLY BINDING TO THE UBIQUITIN LIGASE ADAPTER FBXO31” (ETH ZÜRICH, priority 2022, published 2026).
fluorescein = N-terminal fluorescein label, coupled as FITC

Assays:
K562 cells = test: Fluorescent reporter protein stability assay in nucleofected K562 cells; type: cell-based, human; settings: sfGFP carrying a primary C-terminal amide
Experimental: HEK293T cells were cultured in DMEM containing Glutamax (Thermo Fisher Scientific) and K562 cells were cultured in RPMI 1640 containing Glutamax (Thermo Fisher Scientific) under standard conditions. Growth media were further supplemented with 10% (v/v) Fetal Bovine Serum (Thermo Fisher Scientific) and 100 U/ml Penicillin-Streptomycin (Thermo Fisher Scientific). Stably transduced cells were selected using 2 μg/ml Puromycin (Thermo Fisher Scientific), 500 μg/ml Geneticin (Thermo Fisher Scientific) or 10 μg/ml Blasticidin (Thermo Fisher Scientific) starting two days after transduction. Induction of doxycycline-dependent vectors was performed using 500 ng/ml doxycycline (Merck) every 48 hours. […]
For measuring stability of recombinant or semi-synthetic proteins, 1.5-2.0×10^5 cells were nucleofected with 200 pmol of protein in 20 μl cuvettes using a 4D nucleofector device (Lonza) to according the manufacturer's recommendations. Following protein delivery, cells were left to recover at 37° C. for 30-45 minutes before measuring initial mean fluorescence intensity values (to) on a Attune N×T Flow Cytometer (Thermo Fisher Scientific). […] Baseline-fluorescence values of mock nucleofected cells receiving no protein were measured and subtracted for each time point and baseline-corrected fluorescence values were normalized to t0. […]

FBXO31 = biological target: T1, FBXO31 (Homo sapiens, UniProt Q5XUX0); test: Competitive fluorescence polarization anisotropy (displacement of fluorescent peptide probes); type: binding; settings: probes FL-lib-SVV-NH2, FL-CycD1-NH2, FL-Pep2-NH2; 2 nM probe, 200 nM FBXO31
T1 construct: histidine tag (Ulp1-cleavable) (cleaved yes); made in house; host or cells: bacteria (pET28b expression vector)
T1 sequence (Q5XUX0 whole entry): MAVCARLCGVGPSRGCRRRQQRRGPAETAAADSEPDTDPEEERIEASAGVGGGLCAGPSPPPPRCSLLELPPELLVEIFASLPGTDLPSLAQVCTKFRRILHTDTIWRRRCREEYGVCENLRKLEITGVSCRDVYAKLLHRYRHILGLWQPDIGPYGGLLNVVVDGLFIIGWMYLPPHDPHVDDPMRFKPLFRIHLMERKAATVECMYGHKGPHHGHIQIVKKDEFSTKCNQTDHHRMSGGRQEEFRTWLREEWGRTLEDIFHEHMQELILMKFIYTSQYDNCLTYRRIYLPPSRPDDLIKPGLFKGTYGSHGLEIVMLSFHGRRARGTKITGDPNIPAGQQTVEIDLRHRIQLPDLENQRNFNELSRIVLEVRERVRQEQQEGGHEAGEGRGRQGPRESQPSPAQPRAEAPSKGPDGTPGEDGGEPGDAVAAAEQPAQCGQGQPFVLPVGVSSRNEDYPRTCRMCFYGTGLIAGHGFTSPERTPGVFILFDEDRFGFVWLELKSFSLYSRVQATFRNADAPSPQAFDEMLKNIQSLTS
T1 sequence (P63208 whole entry partner): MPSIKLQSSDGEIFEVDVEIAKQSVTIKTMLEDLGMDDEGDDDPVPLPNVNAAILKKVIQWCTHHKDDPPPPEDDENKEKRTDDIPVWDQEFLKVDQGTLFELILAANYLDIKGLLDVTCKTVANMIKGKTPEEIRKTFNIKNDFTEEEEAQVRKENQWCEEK
Experimental: To test whether a lower molecular weight probe could be derived based on these rules, the C-terminally amidated tripeptide Ser-Val-Val-NH2 (302.37 g/mol) was tested.
Increasing concentrations of recombinant FBXO31/SKP1 complexes were mixed with 20 nM fluorescein-labeled peptides in FPA-buffer (150 mM NaCl, 25 mM HEPES, pH 7.5) and incubated for 30 minutes at room temperature. Fluorescence polarization was measured on a Victor Nivo Plate Reader (Perkin Elmer). Following subtraction of baseline signal, polarization levels were normalized to the highest signal of each pair of amidated and non-amidated peptides. Binding curves were fitted by least squares regression and half-maximal binding concentrations were extracted using Prism 9 (Graphpad) assuming one-site binding and no contribution from unspecific interaction. Competition binding assays were performed in the same way using a fixed ratio of 2 nM fluorescent probe and 200 nM FBXO31 and 0.67 nM to 100 μM competing ligand.

[1] = biological target: T2, recombinant FBXO31/SKP1 complexes (Homo sapiens, UniProt Q5XUX0); test: Fluorescence polarization (FP) binding of fluorescein-labeled peptides to recombinant FBXO31/SKP1; settings: wild type FBXO31/SKP1
T2 construct: histidine tag (Ulp1-cleavable) (cleaved yes); made in house; host or cells: bacteria (pET28b expression vector)
T2 sequence (Q5XUX0 whole entry): as the sequence (Q5XUX0 whole entry) above
T2 sequence (P63208 whole entry partner): as the sequence (P63208 whole entry partner) above
Experimental: It was then tested whether SCF/FBXO31 directly binds and ubiquitylates amidated clients, or whether it plays an indirect role in CTAP clearance. To this end, recombinant FBXO31 in complex with the binding partner SKP1 was purified and its affinity for various peptides was measured by fluorescence polarization (FP).
In this regard, it was first tested whether FBXO31 specifically binds C-terminal amides rather than side chain amides in asparagine or glutamine. […] Hydrophobic residues were most strongly bound, with X—F—CONH2 as the best substrate (KD≈6 nM), followed by other and then uncharged and charged hydrophilic side chains.
Codon-optimized CDNAs of SKP1 and FBXO31 were generated by gene synthesis (Integrated DNA Technologies) and cloned into the bacterial expression vector pET28b. Expression was performed at 18° C. overnight in presence of 0.5 mM IPTG. Following bacterial cell lysis by sonication in buffer NBA (200 mM NaCl, 50 mM HEPES, 25 mM imidazole, 5 mM DTT freshly added, pH 8.0), recombinant protein was enriched on a HisTrap FF column (Cytiva) by elution with 250 mM imidazole. […]
Increasing concentrations of recombinant FBXO31/SKP1 complexes were mixed with 20 nM fluorescein-labeled peptides in FPA-buffer (150 mM NaCl, 25 mM HEPES, pH 7.5) and incubated for 30 minutes at room temperature. Fluorescence polarization was measured on a Victor Nivo Plate Reader (Perkin Elmer). […]

NS(=O)(=O)OC[C@H]1C[C@@H](Nc2ccnc3cc(-c4cccc(SC(F)(F)F)c4)nn23)[C@H](O)[C@@H]1O [TAK243]
effect of inhibitor on destabilization of C-terminally amidated sfGFP (K562 cells): fully blunted

CC[C@H](C)[C@H](NC(=O)[C@H]([C@@H](C)CC)N(C)C(C)=O)C(=O)N[C@H](C(=O)N[C@@H](CC(C)C)C(=O)[C@@]1(C)CO1)[C@@H](C)O [epoxomicin]
effect of inhibitor on destabilization of C-terminally amidated sfGFP (K562 cells): fully blunted

Ser-Val-Val-NH2
displacement of fluorescent peptide probes from FBXO31 (FBXO31): efficiently displace

[Fluorescein]-KKYRYDVPDYSVV-NH2 (fluorescein-KKYRYDVPDYSVV-NH2) [FL-lib-SVV-NH2]
binding/affinity for FBXO31 (in words) [1]: high affinity
